# From patent US6020480A, “Caged NADP and NAD” (The Regents of the University of California, priority 1997, dated 2000)
# Columns and labels:
# [1] = molecular target: T1, IDH, isocitrate dehydrogenase (Escherichia coli) (Escherichia coli, UniProt P08200); assay: Crystallographic analysis of caged compounds soaked into IDH crystals; format: binding; conditions: 250 mM soak
# T1 construct: made in house
# Source text: IDH was purified and crystallized as described previously by Reeves, H. C., Daumy, G. O., Lin, C. C., and Houston, M. (1972) Biochim. Biophys. Acta 258, 27-39; LaPorte, D. C., Thorsness, P. E., and Koshland, D. E., Jr. (1985) J. Biol. Chem. 260, 10563-10568; Hurley, J. H., Thorsness, P. E., Ramalingam, V., Helmers, N. H., Koshland, D. E., Jr., and Stroud, R. M. (1989) Proc. Natl. Acad. Sci. U.S.A 86, 8635-8639; and Stoddard, B. L., Dean, A., and Koshland, D. E., Jr. (1993) Biochemistry 32, 9310-9316.
# The crystals were 0.5 to 1.5 mm along their longest edges, with a shorter third dimension of 0.2 to 0.3 mm; the crystals belong to space group P43 21 2. The unit cell dimensions prior to photolysis and after binding liberated substrate consistently refined to values within 0.5% of the previously published lengths during data processing.
# A total of six crystallographic data sets were collected for this study. The structure of the enzyme was determined prior to photolysis after soaking with each compound, both in the presence and absence of bound isocitrate/Mg^+2. The structure of the bound photolysis product was also determined for both caged compounds in the absence of isocitrate/Mg^+2.
# For each experiment, a crystal was transferred to 0.5 mL of a stabilization solution (generally 10% higher ammonium sulfate than that used to grow the crystals, buffered at pH 7.0 with HEPES) and soaked overnight in the dark with 250 mM of either 1 or 3. These experiments were performed for each compound in the presence and absence of 50 mM isocitrate and MgSO4. To protect the crystal from oxidative degradation after photolysis by the nitroso photoproducts, β-mercaptoethanol (10 mM) and DTT (10 mM) were also added to the mother liquor. The crystals were mounted under safe-light in quartz capillaries with mother liquor at either end of the capillary. The mount was sealed with mineral oil and paraffin wax. Initial data were collected at room temperature in the dark on an RAXIS imaging plate area detector with a Rigaku RU-200 rotating anode X-ray generator operating at 50 kV, 80 mA. A complete data set was collected from each crystal to 2.5 Å resolution using 20 1.5° rotations at 30 minutes per frame, followed by an additional 10 frames collected with the crystal on a 45° jig (Molecular Structure Corporation) for completeness. The total decay in X-ray intensities during collection of each of these four dark data sets was less than 5% of the initial structure average factor amplitudes.
# Crystals that were soaked in caged 1 or 3 in the absence of isocitrate were each irradiated after the dark data collection, using a two minute exposure with a Cole Parmer 9741-50 quartz halogen light source with a 9741-03 high intensity 150 watt bulb and dual fiber optic light pipes and focusing lenses. […]
# [2] = Rates of photorelease from decay of the aci-nitro anions after photolysis; format: physicochemical
# Description: The decay of aci-nitro intermediates was monitored at 402 nm or 418 nm with an Osram 50-W tungsten halogen lamp following excitation at 355 nm with a 55 mJ 8-ns pulse. Samples were prepared with 50 mM phosphate buffer, pH 7.0 or pH 6.0. […] Kinetic analysis was made by nonlinear, least-squares computer iteration. The averages of three trials are reported.
# [3] = molecular target: T1, IDH, isocitrate dehydrogenase (Escherichia coli); assay: Turnover check by absorbance analysis of dissolved IDH crystals after extensive soaks; format: biochemical; conditions: crystals soaked in presence of bound isocitrate/Mg+2
# Source text: The nicotinamide ring, its ribose sugar, and the first backbone phosphate are all completely disordered. […] The presence of the caging group on the carboxyamide nitrogen sterically prevents hydride transfer. […] After photolysis in the absence of isocitrate, liberated NADP 1002 is still bound to the active site as previously determined for unmodified NADP, as shown in FIG. C. The clear advantage of this compound as a photolytic trigger for time-resolved studies is that it is bound to the enzyme active site prior to photolysis, so that no additional diffusion or binding events are necessary to form the Michaelis complex.
# [4] = absence of bound isocitrate/Mg+2, dark
# [5] = presence of bound isocitrate/Mg+2, dark
# [6] = 10 mM DTT, monitored at 418 nm, double exponential fit
# T1 sequence (P08200 whole entry): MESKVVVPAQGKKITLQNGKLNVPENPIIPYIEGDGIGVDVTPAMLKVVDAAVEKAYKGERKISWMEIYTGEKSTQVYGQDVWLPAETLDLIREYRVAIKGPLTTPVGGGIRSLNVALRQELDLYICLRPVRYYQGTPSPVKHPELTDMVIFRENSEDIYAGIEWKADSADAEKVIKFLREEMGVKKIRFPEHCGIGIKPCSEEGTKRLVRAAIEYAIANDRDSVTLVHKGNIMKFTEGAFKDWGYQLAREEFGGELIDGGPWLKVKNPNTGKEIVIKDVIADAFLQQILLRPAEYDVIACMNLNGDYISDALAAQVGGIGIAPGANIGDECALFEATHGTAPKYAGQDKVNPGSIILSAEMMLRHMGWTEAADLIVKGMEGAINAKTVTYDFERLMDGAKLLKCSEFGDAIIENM
compound,measurement,setting,value
"COc1cc(C(C)OP(=O)(O)O[C@@H]2[C@H](O)[C@@H](COP(=O)(O)OP(=O)([O-])OC[C@H]3O[C@@H]([n+]4cccc(C(N)=O)c4)[C@H](O)[C@@H]3O)O[C@H]2n2cnc3c(N)ncnc32)c([N+](=O)[O-])cc1OC (stereo partly drawn) [compound 1, P^2' -[1-(4,5-Dimethoxy-2-nitrophenyl)ethyl]nicotinamide adenine dinucleotide phosphate]",binding to IDH active site before photolysis,[1]; [4],fails to bind
same,binding to IDH active site before photolysis,[1]; [5],fails to bind
same,"aci-nitro transient decay rate, fast component",[2]; [6],13000 s⁻¹
same,"aci-nitro transient decay rate, slow component",[2]; [6],93 s⁻¹
same,"aci-nitro transient decay rate, fast component","[2]; 100 mM DTT, 418 nm",18000 s⁻¹
same,"aci-nitro transient decay rate, slow component","[2]; 100 mM DTT, 418 nm",480 s⁻¹
"Nc1ncnc2c1ncn2[C@@H]1O[C@H](COP(=O)(O)OP(=O)([O-])OC[C@H]2O[C@@H]([n+]3cccc(C(=O)NC(C(=O)O)c4ccccc4[N+](=O)[O-])c3)[C@H](O)[C@@H]2O)[C@@H](O)[C@H]1OP(=O)(O)O (stereo partly drawn) [compound 3, N-(α-Carboxy-2-nitrobenzyl)-nicotinamide adenine dinucleotide phosphate]",binding to IDH active site before photolysis,[1]; [4],binds to the enzyme
same,binding to IDH active site before photolysis,[1]; [5],both backbone phosphates of the caged cofactor are well ordered
same,first-order decay rate k of transient (rate of photorelease),"[2]; 50 mM phosphate buffer, pH 7.0",30 s⁻¹
same,rate of photorelease,[2]; sample pH 6,42 s⁻¹
same,IDH turnover with caged cofactor before photolysis,[3],turnover does not occur
"P-[1-(4,5-Dimethoxy-2-nitrophenyl)ethyl] nicotinamide adenine dinucleotide [compound 2]",fast decay component,[2]; DTT concentration not stated,17000 s⁻¹
